These are literature values, as cited in patent US20110104273A1, “GASTRIC RETENTIVE PHARMACEUTICAL COMPOSITIONS FOR IMMEDIATE AND EXTENDED RELEASE OF PHENYLEPHRINE” (DEPOMED, INC., priority 2009, published 2011).

Structures can show the parent of a compound that is named as a salt. Where two headings read alike, the source gives them in different places.

Data set [1] has as its system cardiovascular system.
Experiment in data set [2]: not given
This is another data set of the same source.

Consider `CNC[C@H](O)c1cccc(O)c1` [Phenylephrine HCl], for which the solubility in water entry is reported as “freely soluble”.

On to `CNC[C@H](O)c1cccc(O)c1` [Phenylephrine, (R)-3-[-1-hydroxy-2-(methylamino)ethyl]phenol alcohol hydrochloride], for which the “threshold dosage for any effects on the cardiovascular system” value in data set [1] (administered orally in man) is recorded as “about 50 mg”. Moreover, the “effects on the cardiovascular system” value in data set [1] (oral over-the-counter (OTC) doses) was “minimal effects”. In data set [2] (oral), the “absorption from the gut” value was “well absorbed” and the bioavailability entry is reported as “up to 38%”. In addition, the systemic bioavailability entry in data set [2] (oral administration) is “around 40%”. Also, in data set [2] (oral dose), the “fraction of oral dose excreted unchanged in the urine” value is “about 3%”. Also, the solubility in water entry (hydrochloride) is “highly soluble”.
